Experimental data reported in publication PMC8009520, “Exploration of TRPM8 Binding Sites by β-Carboline-Based Antagonists and Their In Vitro Characterization and In Vivo Analgesic Activities” (Journal of Medicinal Chemistry, 2020).
Values joined by “and” are separate entries in the source; they are usually repeats but may differ in a detail not shown here. Equal values may be shown once. Read-outs that look alike come from different tables or passages of the source.

Legend:
[1] = molecular target: T1, rat isoform of TRPM8 channels (Rattus norvegicus, UniProt Q8R455); test: Ca2+ fluorimetric assay, menthol-activated channel; format: cell-based
T1 construct: expressed in transfected cells
T1 sequence (Q8R455 whole entry, canonical isoform): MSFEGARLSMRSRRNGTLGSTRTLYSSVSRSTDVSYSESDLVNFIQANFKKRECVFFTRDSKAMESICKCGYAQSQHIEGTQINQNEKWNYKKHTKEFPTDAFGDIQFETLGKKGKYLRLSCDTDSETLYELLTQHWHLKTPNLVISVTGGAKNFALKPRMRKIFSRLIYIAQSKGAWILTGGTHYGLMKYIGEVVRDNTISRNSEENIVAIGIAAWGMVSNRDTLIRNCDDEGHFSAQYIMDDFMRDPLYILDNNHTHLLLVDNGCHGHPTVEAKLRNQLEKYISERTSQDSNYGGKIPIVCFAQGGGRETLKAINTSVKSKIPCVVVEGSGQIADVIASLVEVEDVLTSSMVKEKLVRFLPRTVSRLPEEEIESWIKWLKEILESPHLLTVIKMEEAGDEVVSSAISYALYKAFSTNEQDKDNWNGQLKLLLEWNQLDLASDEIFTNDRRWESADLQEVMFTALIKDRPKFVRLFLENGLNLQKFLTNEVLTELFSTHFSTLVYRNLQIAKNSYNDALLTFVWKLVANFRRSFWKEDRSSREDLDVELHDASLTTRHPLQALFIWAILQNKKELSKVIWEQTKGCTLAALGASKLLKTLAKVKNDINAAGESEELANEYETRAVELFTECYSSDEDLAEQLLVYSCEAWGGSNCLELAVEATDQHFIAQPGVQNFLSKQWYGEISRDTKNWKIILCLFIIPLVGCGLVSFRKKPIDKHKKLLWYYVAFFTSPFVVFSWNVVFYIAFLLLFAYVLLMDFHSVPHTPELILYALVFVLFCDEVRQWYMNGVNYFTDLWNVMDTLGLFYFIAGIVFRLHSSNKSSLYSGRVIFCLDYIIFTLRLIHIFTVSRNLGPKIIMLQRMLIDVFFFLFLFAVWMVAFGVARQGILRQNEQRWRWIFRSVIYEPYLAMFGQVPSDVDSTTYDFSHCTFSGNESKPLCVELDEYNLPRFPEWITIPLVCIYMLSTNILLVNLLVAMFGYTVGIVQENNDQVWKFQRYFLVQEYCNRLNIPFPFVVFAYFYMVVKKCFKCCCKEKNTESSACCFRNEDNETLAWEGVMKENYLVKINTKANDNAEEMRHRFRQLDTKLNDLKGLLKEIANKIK
Method: TRPM8 blocker activity of all synthesized compounds was tested by Ca^2+ fluorimetric assays using HEK-293 cells stably expressing the rat isoform of TRPM8 channels, using menthol and AMTB as prototypical agonist and antagonist, respectively.
For measurement of the potency of the compounds, fluorimetric experiments were performed using HEK-293 cells (CRL-1573TM, American Type Culture Collection, LGC Promochem, Molsheim, France) that stably express rat TRPM8. The cells were seeded in 96-well plates (Corning Incorporated, Corning, NY) at a cell density of 40 000 cells 2 days before treatment. On the day of treatment, the medium was replaced with 100 μL of the dye loading solution Fluo-4 NW supplemented with probenecid 2.5 mM.
The tested molecules dissolved in DMSO were added at the desired concentrations, and the plates were incubated in darkness at 37 °C in a humidified atmosphere of 5% CO2 for 60 min. The fluorescence was measured using instrument settings appropriate for excitation at 485 nm and emission at 535 nm (POLARstar Omega BMG LABtech). A baseline recording of four cycles was recorded prior to stimulation with the agonist (100 μM menthol for TRPM8). The TRPM8 antagonist, 10 μM AMTB, was added to the medium containing the corresponding agonist to induce channel blockade. The changes in fluorescence intensity were recorded during 15 cycles more. The higher concentration of DMSO used in the experiment was added to the control wells. The cells’ fluorescence was measured before and after the addition of various concentrations of test compounds. The fluorescence values obtained are normalized to that prompted by the corresponding agonist (for channel activating compounds) or upon agonist and antagonist coexposure (for channel blocker compounds).

[2] = molecular target: T2, hNav1.7 (Homo sapiens, UniProt Q15858); test: Selectivity fluorimetric assay, HEK-293 cells; format: cell-based; conditions: for IC50: read-out: IC50, antagonistic activity over Nav1.7; for activity as agonist or antagonist on Nav1.7: veratridine as reference agonist
T2 construct: expressed in transfected cells; host or cells: HEK-293, stably transfected
T2 sequence (Q15858 whole entry): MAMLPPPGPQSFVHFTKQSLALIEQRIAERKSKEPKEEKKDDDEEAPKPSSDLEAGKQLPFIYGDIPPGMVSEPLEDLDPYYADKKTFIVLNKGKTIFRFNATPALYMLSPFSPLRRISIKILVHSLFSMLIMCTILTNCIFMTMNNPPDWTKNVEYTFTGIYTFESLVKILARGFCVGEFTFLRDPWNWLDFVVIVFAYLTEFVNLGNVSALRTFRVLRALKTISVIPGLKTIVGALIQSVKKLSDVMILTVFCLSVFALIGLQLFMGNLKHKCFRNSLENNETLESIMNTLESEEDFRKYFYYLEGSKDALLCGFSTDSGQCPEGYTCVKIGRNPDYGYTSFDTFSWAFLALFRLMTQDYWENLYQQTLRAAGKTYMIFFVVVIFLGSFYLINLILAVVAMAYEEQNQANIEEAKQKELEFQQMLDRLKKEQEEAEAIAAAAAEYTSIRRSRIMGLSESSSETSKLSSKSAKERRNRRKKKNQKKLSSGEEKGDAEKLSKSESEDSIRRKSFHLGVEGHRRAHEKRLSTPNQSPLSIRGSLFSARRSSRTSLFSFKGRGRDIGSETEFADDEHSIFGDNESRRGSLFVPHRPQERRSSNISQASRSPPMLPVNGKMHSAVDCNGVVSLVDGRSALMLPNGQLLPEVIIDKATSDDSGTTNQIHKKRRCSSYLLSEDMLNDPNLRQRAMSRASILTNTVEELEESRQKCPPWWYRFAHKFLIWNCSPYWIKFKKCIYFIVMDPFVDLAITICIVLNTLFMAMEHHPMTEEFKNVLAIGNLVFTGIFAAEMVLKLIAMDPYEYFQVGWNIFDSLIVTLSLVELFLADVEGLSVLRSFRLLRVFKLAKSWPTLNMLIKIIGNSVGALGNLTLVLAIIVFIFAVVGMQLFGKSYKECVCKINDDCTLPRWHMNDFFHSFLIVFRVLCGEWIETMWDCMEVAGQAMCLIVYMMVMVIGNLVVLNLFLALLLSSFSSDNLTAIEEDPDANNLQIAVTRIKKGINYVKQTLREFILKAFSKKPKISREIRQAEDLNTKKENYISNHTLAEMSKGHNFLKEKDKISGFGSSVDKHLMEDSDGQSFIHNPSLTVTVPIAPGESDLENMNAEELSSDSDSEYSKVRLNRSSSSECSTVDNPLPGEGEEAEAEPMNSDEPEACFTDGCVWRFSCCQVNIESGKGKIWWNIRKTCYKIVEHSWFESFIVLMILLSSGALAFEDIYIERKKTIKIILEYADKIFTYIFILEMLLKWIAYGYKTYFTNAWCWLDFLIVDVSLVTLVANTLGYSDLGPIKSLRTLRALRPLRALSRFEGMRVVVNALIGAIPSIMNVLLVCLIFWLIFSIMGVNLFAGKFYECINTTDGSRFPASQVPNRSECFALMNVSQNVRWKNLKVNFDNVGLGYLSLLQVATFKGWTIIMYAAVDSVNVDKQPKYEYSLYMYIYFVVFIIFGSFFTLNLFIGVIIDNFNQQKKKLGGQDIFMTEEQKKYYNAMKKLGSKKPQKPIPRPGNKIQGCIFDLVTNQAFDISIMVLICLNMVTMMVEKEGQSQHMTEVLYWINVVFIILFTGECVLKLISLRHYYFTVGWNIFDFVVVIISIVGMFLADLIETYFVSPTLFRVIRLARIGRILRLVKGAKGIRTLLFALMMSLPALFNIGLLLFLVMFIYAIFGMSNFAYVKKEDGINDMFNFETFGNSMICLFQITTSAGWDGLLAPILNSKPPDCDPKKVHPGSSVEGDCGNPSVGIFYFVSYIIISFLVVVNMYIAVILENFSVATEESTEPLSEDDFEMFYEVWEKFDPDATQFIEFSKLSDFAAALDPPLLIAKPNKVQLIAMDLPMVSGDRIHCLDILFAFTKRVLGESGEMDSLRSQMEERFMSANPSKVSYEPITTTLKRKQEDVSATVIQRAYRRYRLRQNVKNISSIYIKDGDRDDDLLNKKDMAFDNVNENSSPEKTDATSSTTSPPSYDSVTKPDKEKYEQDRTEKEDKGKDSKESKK

[3] = molecular target: T3, hTRPV1 (Homo sapiens, UniProt Q8NER1); test: Selectivity fluorimetric assay, CHO-K1 cells; format: cell-based; conditions: capsaicine as reference agonist
T3 construct: expressed in transfected cells; host or cells: CHO-K1, stably transfected
T3 sequence (Q8NER1 whole entry): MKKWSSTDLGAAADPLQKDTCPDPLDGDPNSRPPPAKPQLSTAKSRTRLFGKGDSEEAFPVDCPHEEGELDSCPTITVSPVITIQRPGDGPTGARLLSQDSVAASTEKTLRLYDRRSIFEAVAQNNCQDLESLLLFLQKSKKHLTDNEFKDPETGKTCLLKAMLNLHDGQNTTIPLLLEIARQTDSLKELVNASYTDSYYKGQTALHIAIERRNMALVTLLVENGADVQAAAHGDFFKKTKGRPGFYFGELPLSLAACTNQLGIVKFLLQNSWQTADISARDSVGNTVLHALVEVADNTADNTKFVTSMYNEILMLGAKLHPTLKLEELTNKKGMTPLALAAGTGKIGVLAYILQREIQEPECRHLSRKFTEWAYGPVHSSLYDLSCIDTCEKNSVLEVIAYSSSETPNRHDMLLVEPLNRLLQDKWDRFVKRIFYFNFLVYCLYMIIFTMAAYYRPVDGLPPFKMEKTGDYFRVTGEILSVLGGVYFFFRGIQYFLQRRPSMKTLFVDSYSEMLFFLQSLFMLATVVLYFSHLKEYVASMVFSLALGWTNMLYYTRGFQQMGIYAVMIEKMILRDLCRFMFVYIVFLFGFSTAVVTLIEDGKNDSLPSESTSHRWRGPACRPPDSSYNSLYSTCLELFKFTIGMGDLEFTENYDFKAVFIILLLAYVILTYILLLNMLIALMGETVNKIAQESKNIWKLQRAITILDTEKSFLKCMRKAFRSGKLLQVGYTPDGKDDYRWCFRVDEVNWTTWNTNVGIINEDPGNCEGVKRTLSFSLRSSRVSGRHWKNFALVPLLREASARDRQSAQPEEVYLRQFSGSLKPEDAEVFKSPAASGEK

[4] = molecular target: T4, hTRPA1 (Homo sapiens, UniProt O75762); test: Selectivity fluorimetric assay, HEK-293 cells; format: cell-based; conditions: AITC as reference agonist
T4 construct: expressed in transfected cells; host or cells: HEK-293, stably transfected
T4 sequence (O75762 whole entry): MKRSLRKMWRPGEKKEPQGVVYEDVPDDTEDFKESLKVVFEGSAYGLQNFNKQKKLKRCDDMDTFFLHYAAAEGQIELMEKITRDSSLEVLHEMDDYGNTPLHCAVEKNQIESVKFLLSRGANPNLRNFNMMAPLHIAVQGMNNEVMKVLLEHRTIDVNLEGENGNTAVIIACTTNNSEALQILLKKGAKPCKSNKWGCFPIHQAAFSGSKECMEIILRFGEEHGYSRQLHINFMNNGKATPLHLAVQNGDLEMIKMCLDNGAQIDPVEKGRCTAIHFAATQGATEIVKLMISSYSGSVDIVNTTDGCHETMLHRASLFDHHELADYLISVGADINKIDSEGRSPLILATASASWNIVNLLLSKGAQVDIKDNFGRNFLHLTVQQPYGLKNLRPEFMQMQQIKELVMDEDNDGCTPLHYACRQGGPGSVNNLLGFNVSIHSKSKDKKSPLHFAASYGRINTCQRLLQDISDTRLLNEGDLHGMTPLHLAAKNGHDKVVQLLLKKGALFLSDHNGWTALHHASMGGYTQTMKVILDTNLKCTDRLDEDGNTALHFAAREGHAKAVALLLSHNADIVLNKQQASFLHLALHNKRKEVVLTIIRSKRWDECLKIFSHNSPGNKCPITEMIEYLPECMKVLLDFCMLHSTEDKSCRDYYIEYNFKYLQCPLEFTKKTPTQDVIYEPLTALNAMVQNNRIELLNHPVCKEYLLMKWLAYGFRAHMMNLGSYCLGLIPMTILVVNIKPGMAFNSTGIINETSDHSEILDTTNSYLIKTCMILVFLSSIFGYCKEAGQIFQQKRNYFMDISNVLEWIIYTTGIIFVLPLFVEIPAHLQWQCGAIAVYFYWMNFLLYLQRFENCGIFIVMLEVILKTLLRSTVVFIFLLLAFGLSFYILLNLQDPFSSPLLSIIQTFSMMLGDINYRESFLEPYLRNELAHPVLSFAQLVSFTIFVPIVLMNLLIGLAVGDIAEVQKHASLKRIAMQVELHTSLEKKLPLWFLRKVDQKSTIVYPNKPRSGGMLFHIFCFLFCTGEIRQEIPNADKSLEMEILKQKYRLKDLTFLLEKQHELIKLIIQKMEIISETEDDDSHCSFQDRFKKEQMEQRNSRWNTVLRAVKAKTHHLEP

[5] = In vitro metabolic stability using liver microsomes; format: in vitro ADME, human; conditions: 60 min with liver microsomes, no NADPH or UDP-GlcUA/NADPH
Method: Compound 4 was used as reference, considering that its main pitfall was represented by metabolic instability that the newly synthesized compounds were aimed in overcoming. […] Each sample (2.5 mM) was incubated with 100 mM phosphate buffer (pH 7.4) and 20 mg/mL of liver microsomes (Thermo Fisher Scientific, Bremen, Germany). After preincubation in water bath for 5 min, the mixture was incubated with 20 mM NADPH (protocol I) at 37 °C for 60 min in a Thermomixer comfort (Eppendorf, Hamburg, Germany). For the measurement of UGT activity the microsomes were preincubated with alamethicin, which forms pores in microsomal membranes, promoting access of substrate and cofactor to UGT enzymes. Subsequently, each sample was incubated with 100 mM phosphate buffer, 500 mM magnesium chloride, 10 mM NADPH, and 20 mM UDP-GlcUA at 37 °C for 60 min. Finally, the reactions from both protocols (protocols I and II) were stopped by the addition of 200 μL of ice-cold methanol, and then samples were centrifuged at 10 000 rpm at 25 °C for 5 min (Eppendorf microcentrifuge 5424, Hamburg, Germany). The supernatants were collected and injected in UHPLC-PDA. The control at 0 min was obtained by addition of the organic solvent immediately after incubation with microsomes. […] The extent of metabolism is expressed as a percentage of the parent compound turnover using the following equation, as previously described:[43] […]

[6] = Time-course cis to trans epimerization stability (HPLC); format: physicochemical; conditions: for conversion of cis isomer to trans isomer: during 60 min, regardless of the solvent used (PBS, methanol)
Method: In this case, a different chemical approach is required because of the minor reactivity of anilines. Intermediates THBC 32a and 32b were coupled with 3CF3 or 2F or 4-F-phenyl isocyanate in basic medium of TEA. […] Absolute configuration was determined as described above. The formation of the cis intermediates, which was not observed with the N-benzyl or N-alkyl analogs, can be explained by the increased stability of the kinetic control species due to the higher rigidity of this structure. […] In addition, the corresponding C-11a epimers 36a′–38a′ could be obtained directly by reaction of 32b with the corresponding isocyanates and TEA at 60 °C for 30 min in 39–45% yields.
Figure S1: Time-course trans (36a’-38a’) / cis (36b-38b) HPLC peak area ratio in physiological
buffer (PBS, panel A) and methanol (Panel B).

[7] = HEK-293 cells stably expressing rat TRPM8, menthol as agonist, mean ± SD of at least three measurements, read-out: IC50
[8] = Table 2, Ca2+ fluorimetric assay, read-out: IC50 Ca2+
[9] = supplementary xlsx, read-out: rTRPM8 IC50 (calcium microfluorimetric assays)

Structure (SMILES)	IC50 [1, 7]	activity as agonist or antagonist on TRPV1 [3]	activity as agonist or antagonist on TRPA1 [4]	IC50 [1, 8] [µM]	IC50 [1, 9] [µM]	also measured
COC(=O)[C@@H]1Cc2c([nH]c3ccccc23)[C@@H](c2ccccc2)N1Cc1ccccc1 [6a, (1R,3S)-Methyl 2-Benzyl-1-phenyl-2,3,4,9-tetrahydro-1H-pyrido[3,4-b]indole-3-carboxylate]	1.3 ± 0.7 µM	no activity as agonists or antagonists	no activity as agonists or antagonists	–	–	IC50 [2]: > 10 µM
COC(=O)CC[C@H]1N[C@H](C(=O)NCc2ccc(F)cc2)Cc2c1[nH]c1ccccc21 [11a, Methyl 3-((1R,3S)-3-((4-Fluorobenzyl)carbamoyl)-2,3,4,9-tetrahydro-1H-pyrido[3,4-b]indol-1-yl)propanoate]	0.8 µM and 1.1 µM	no activity as agonists or antagonists	no activity as agonists or antagonists	1.1 ± 0.5	–	activity as agonist or antagonist on Nav1.7 [2]: no activity as agonists or antagonists; turnover in absence of metabolic cofactors [5]: 66.5 ± 3.8%
O=C1[C@@H]2Cc3c([nH]c4ccccc34)[C@H](c3ccc(F)cc3)N2C(=O)N1c1cccc(C(F)(F)F)c1 [36b, (5S,11aS)-5-(4-Fluorophenyl)-2-(3-(trifluoromethyl)phenyl)-5,6,11,11a-tetrahydro-1H-imidazo[1′,5′:1,6]pyrido[3,4-b]indole-1,3(2H)-dione]	0.2 ± 0.2 µM	no activity as agonists or antagonists	no activity as agonists or antagonists	0.2 ± 0.2	0.3 ± 0.4	activity as agonist or antagonist on Nav1.7 [2]: no activity as agonists or antagonists; percentage of epimerization ([6]; during patch-clamp electrophysiology assays): negligible
O=C1[C@@H]2Cc3c([nH]c4ccccc34)[C@H](c3ccc(F)cc3)N2C(=O)N1c1ccccc1F [37b, (5S,11aS)-2-(2-Fluorophenyl)-5-(4-fluorophenyl)-5,6,11,11a-tetrahydro-1H-imidazo[1′,5′:1,6]pyrido[3,4-b]indole-1,3(2H)-dione]	–	–	–	–	–	conversion of cis isomer to trans isomer [6]: almost fully converted to the trans isomers
O=C1[C@H]2Cc3c([nH]c4ccccc34)[C@H](c3ccc(F)cc3)N2C(=O)N1c1ccc(F)cc1 [38a′, (5S,11aR)-2,5-Bis(4-fluorophenyl)-5,6,11,11a-tetrahydro-1H-imidazo[1′,5′:1,6]pyrido[3,4-b]indole-1,3(2H)-dione]	7.2 ± 0.9 µM	–	–	–	–	–
O=C1[C@@H]2Cc3c([nH]c4ccccc34)[C@H](c3ccc(F)cc3)N2C(=O)N1c1ccc(F)cc1 [38b, (5S,11aS)-2,5-Bis(4-fluorophenyl)-5,6,11,11a-tetrahydro-1H-imidazo[1′,5′:1,6]pyrido[3,4-b]indole-1,3(2H)-dione]	–	–	–	–	–	conversion of cis isomer to trans isomer [6]: almost fully converted to the trans isomers
Cc1cccc(COc2ccccc2C(=O)N(CCCN)Cc2cccs2)c1 [AMTB, reference compound]	7.3 ± 1.5 µM	–	–	–	–	–
O=C(NCc1ccc(F)cc1)[C@@H]1Cc2c([nH]c3ccccc23)CN1 [compound 9, (S)-N-(4-Fluorobenzyl)-2,3,4,9-tetrahydro-1H-pyrido[3,4-b]indole-3-carboxamide]	0.9 ± 0.4 µM	no activity as agonists or antagonists	no activity as agonists or antagonists	0.9 ± 0.4	0.6 ± 1.3	IC50 [2]: > 10 µM
COC(=O)[C@@H]1Cc2c([nH]c3ccccc23)CN1C(=O)CCN [compound 17, (S)-Methyl 2-(3-Aminopropanoyl)-2,3,4,9-tetrahydro-1H-pyrido[3,4-b]indole-3-carboxylate]	> 100 µM	–	–	–	–	–
O=C1NCC(=O)N2Cc3[nH]c4ccccc4c3C[C@@H]12 [compound 21, (S)-2,3,6,7,12,12a-Hexahydropyrazino[1′,2′:1,6]pyrido[3,4-b]indole-1,4-dione]	11.4 ± 1.6 µM	–	–	–	–	–
O=C1N[C@@H](Cc2ccccc2)C(=O)N2Cc3[nH]c4ccccc4c3C[C@@H]12 [compound 22, (3S,12aS)-3-Benzyl-2,3,12,12a-tetrahydropyrazino[1′,2′:1,6]pyrido[3,4-b]indole-1,4(6H,7H)-dione]	1.6 ± 0.7 µM	–	–	–	1.2 ± 1.3	–
O=C1N[C@H](Cc2ccccc2)C(=O)N2Cc3[nH]c4ccccc4c3C[C@@H]12 [compound 23, (3R,12aS)-3-Benzyl-2,3,12,12a-tetrahydropyrazino[1′,2′:1,6]pyrido[3,4-b]indole-1,4(6H,7H)-dione]	0.4 ± 0.1 µM	no activity as agonists or antagonists	no activity as agonists or antagonists	0.4 ± 0.1	0.3	activity as agonist or antagonist on Nav1.7 [2]: no activity as agonists or antagonists
O=C1[C@@H]2Cc3c([nH]c4ccccc34)CN2C(=O)N1Cc1ccc(F)cc1 [compound 28, (S)-2-(4-Fluorobenzyl)-5,6,11,11a-tetrahydro-1H-imidazo[1′,5′:1,6]pyrido[3,4-b]indole-1,3(2H)-dione]	17.8 ± 1.2 µM	–	–	–	–	–
